In data set [1] the test system is P. falciparum stage V gametocytes. The data set can be described thus: Gametocytocidal ATP bioluminescence assay (single point 5 μM and 1 μM, dose-response). It counts as cell-based, Plasmodium falciparum. The note with it: for Ratio IC50 HepG2/IC50 P. falciparum: IC50 HepG2 divided by IC50 P. falciparum gametocytes; for % Inhibition: 5 μM single concentration, 48 h, decrease of ATP level (S1 Table).
Description: Purified stage IV-V gametocytes were obtained as previously described [10]. Single point ATP bioluminescence assay and dose–response of positive hits was determined in accordance with the previously published protocol [10].

Data set [2] is described as follows: Cytotoxicity in HepG2 cells (intracellular ATP, ATPlite, 48 h). It counts as cell-based, human. The note with it: human, HepG2 cells, IC50 per ratio column head, unit inferred; for IC50 at 48 h: read-out: Cytotoxicity in HepG2. (ATP-based viability assays read luminescence as a measure of living cells.)
Data set [3] relates to P. falciparum asexual stages. To be noted: asexual stages; TCAMS data; read-out: IC50 asexual; cited from earlier work.
Data set [4] relates to P. falciparum stage V gametocytes. Kind of data set: microbe, parasite or virus in culture. Details: BacTiter-Glo ATP luminescence viability of purified stage V gametocytes in 384-well plates, per cent inhibition versus DMSO. The note with it: Plasmodium falciparum, 48 h, read-out: % Inhibition.
The next data set concerns HepG2 cells. The data set can be described thus: Cytotoxicity in HepG2 cells (intracellular ATP, ATPlite, 48 h). It counts as cell-based, human. To be noted: HepG2 cells; IC50 per ratio column head; unit inferred.
[5] abbreviates: Plasmodium falciparum, read-out: IC50 Pf Gametocytes average, IC50 (µM) average.
Setting [6] is: sexual stages (gametocytes), dose-response, read-out: IC50 sexual.
Setting [7] is: Plasmodium falciparum, P. falciparum gametocytes, average, read-out: IC50 Pf Gametocytes average, IC50 (µM) average.
[8] abbreviates: P. falciparum gametocytes, average, read-out: IC50 Pf Gametocytes average, IC50 (µM) average.

Read-outs that look alike come from different tables or passages of the source.

The % Inhibition is the change of the read-out against control, counted positive when it falls. Broadly, the inhibition is the relative decrease from the control value, in per cent.

As for `Cl.c1ccc2c(NCCCCCCCCCNc3c4ccccc4nc4ccccc34)c3ccccc3nc2c1` [TCMDC-124286], in data set [1], the “Ratio IC50 HepG2/IC50 P. falciparum” value was 4. Besides, the IC50 is 1.5 µM in data set [1] (setting [5]), 1.5 µM in data set [1] (setting [6]), 6100 nM in data set [2] and 298 nM in data set [3]. As for `S=C(NN=Cc1ccccn1)Nc1ccc(Cl)c(Cl)c1` [TCMDC-125522], the “Ratio IC50 HepG2/IC50 P. falciparum” value in data set [1] is 130. Further, the IC50 in data set [1] (setting [7]) is 0.07 µM; in data set [3], 768 nM. Also, the IC50 at 48 h in data set [2] was found to be 9100 nM.

`S=C(NN=Cc1ccccn1)NC1CC2C=CC1C2` (stereo not drawn) [TCMDC-125752]: the “Ratio IC50 HepG2/IC50 P. falciparum” value in data set [1] was 6. Moreover, the IC50 in data set [1] (setting [7]) was 0.11 µM; in data set [1] (setting [6]), 0.112 µM; in data set [3] it was 721 nM. In data set [2], the IC50 at 48 h was 700 nM. Consider `COc1cc2nc(NCCCN3CCCCC3)nc(NCc3ccccc3)c2cc1OC` [TCMDC-132012], for which, in data set [1], the “Ratio IC50 HepG2/IC50 P. falciparum” value is on record as 30. Further, the IC50 in data set [1] (setting [7]) was 0.3 µM; in data set [1] (setting [6]), 0.297 µM; in data set [3], 998 nM. In addition, the IC50 at 48 h in data set [2] is 8940 nM. For `COc1ccc(CCNc2nc(NCc3ccccc3)c3cc(OC)c(OC)cc3n2)cc1OC` [TCMDC-132017], in data set [1], the “Ratio IC50 HepG2/IC50 P. falciparum” value amounted to 0.818. Also, the IC50 was 5.6 µM in data set [1] (setting [7]) and 326 nM in data set [3]. For the same compound, the IC50 at 48 h in data set [2] is 4580 nM. Take `FC(F)(F)c1ccc2[nH]c(-c3ccc(-c4ccc(CNCCN5CCNCC5)cc4)s3)nc2c1` [TCMDC-132862]: the “Ratio IC50 HepG2/IC50 P. falciparum” value in data set [1] is reported as 5.37. Besides, the IC50 in data set [1] (setting [5]) was 1.29 µM; in data set [1] (Plasmodium falciparum, read-out: IC50 sexual) it was 1.28 µM; in data set [3], 910 nM. Also, the “%_Inh” value in data set [1] (gametocytes, primary screen at 5 μM (S10 Table, MCSI analogs)) is on record as 105.547%. Moreover, the IC50 at 48 h in data set [2] is 6900 nM. For `CC(C)c1ccc(CN2CCC(CNC(=O)c3cc(-c4cccc(F)c4)cs3)C2)cc1` (stereo not drawn) [TCMDC-134437], the “Ratio IC50 HepG2/IC50 P. falciparum” value in data set [1] is 12. The IC50 in data set [1] (setting [7]) was 0.45 µM; in data set [1] (setting [6]), 0.455 µM; in data set [3], 1660 nM. Besides, the IC50 at 48 h in data set [2] turned out to be 5300 nM. For `COc1ccc2c(NN=CC=Cc3ccccc3)cc(C)nc2c1` [TCMDC-142096], in data set [1] (P. falciparum gametocytes), the “% Inhibition” value amounted to 34%. For the same compound, in data set [4], the inhibition at 5 µM stood at 34%.

Turning to `Fc1ccc2c(NN=Cc3ccc(Cl)cc3)ccnc2c1` [TCMDC-142097], the “% Inhibition” value in data set [1] (P. falciparum gametocytes) stood at 61%. In data set [4], the inhibition at 5 µM amounted to 61.1%. Taken in the same sequence, the figures for `O=[N+]([O-])c1cccc(/C=N/Nc2ccnc3cc(F)ccc23)c1` [TCMDC-142098] were 42% and 42.1%. Take `Clc1ccc(C=NNc2ccnc3ccccc23)cc1` [TCMDC-142099]: in data set [1] (P. falciparum gametocytes), the “% Inhibition” value is -69%. Besides, the inhibition at 5 µM in data set [4] was -69.1%. On the same counts, the results for `Fc1ccc2c(NN=Cc3ccccc3)ccnc2c1` [TCMDC-142100] are 16% and 16.3%.

In the case of `Nc1c(I)cc(C(=O)Nc2ccc3nc4c(c(N)c3c2)CCCC4)cc1I` [TCMDC-142289], in data set [1], the “Ratio IC50 HepG2/IC50 P. falciparum” value is 20. Further, the values for the IC50 (in data set [1] (setting [8]); in the data set with HepG2 cells; in data set [3]) were 0.41 µM, 8030 nM and 143 nM, respectively. Further, in data set [4], the inhibition at 5 µM was determined as 108%.

For the compound `Nc1cc(/C=C/c2ccc([N+](=O)[O-])s2)nc2ccccc12` [TCMDC-142296], the “Ratio IC50 HepG2/IC50 P. falciparum” value in data set [1] worked out at 13. In addition, the IC50 in data set [1] (setting [8]) was 0.6 µM; in data set [1] (setting [6]), 0.595 µM; with HepG2 cells, 7600 nM; in data set [3], 760 nM. For the same compound, the inhibition at 5 µM in data set [4] came out at 111%. Turning to `CC(C)(C)NCC(O)COc1ccc(Cl)cc1C1=NNC(=O)CC1` (stereo not drawn) [TCMDC-142298], the inhibition at 5 µM in data set [4] came to 8.53%. `CC(C)c1cc(Oc2c(I)cc(CCN=C(N)N)cc2I)ccc1O` [TCMDC-142299]: in data set [4], the inhibition at 5 µM was 38.1%. The same measure, in the same setting: under `CC(C)c1cc(Oc2c(I)cc(CCNCc3ccccc3)cc2I)ccc1O` [TCMDC-142300] stands -73.5%; under `Cc1[nH]cnc1CSCCNC(N)=NCCCCCCCCN=C(N)NCCSCc1nc[nH]c1C` [TCMDC-142301], -5.19%. Same read-out and setting: to `Cc1[nH]cnc1CSCCN/C(=N\C#N)NCCCCCCCCN/C(=N/C#N)NCCSCc1nc[nH]c1C` [TCMDC-142302] belongs 48.1%; to `Cc1ccc(Cc2cnc(NCCSCc3ccc(CN4CCOCC4)o3)[nH]c2=O)cn1` [TCMDC-142303], -5.99%; to `Cc1ccc(Cc2cnc(NCCSCc3ccc(CN(C)C)s3)[nH]c2=O)cn1` [TCMDC-142304], -3.6%.

For `CN=C(NO)NCCN(C)C` [TCMDC-142305], the inhibition at 5 µM in data set [4] is -1.82%.

Turning to `Oc1ccc(Cc2cc(Oc3c(I)cc(CCc4ncc[nH]4)cc3I)ccc2O)cc1` [TCMDC-142306], in data set [4], the inhibition at 5 µM was found to be 59.2%. Same read-out and setting: to `CC(C)c1cc(Oc2c(I)cc(CCCc3ncc[nH]3)cc2I)ccc1O` [TCMDC-142307] belongs -127%; to `Oc1ccc(CCCc2cc(Oc3c(I)cc(CCc4ncc[nH]4)cc3I)ccc2O)cc1` [TCMDC-142308], -67%. The same measure, in the same setting: under `Cc1cc(Br)cnc1CCCCN=C1NC(=O)CN1C` [TCMDC-142309] stands 5.26%. For the compound `O=c1c(NCCCN(Cc2ccc(F)cc2)c2ccccn2)c(NCc2ccncc2)c1=O` [TCMDC-142310], in data set [4], the inhibition at 5 µM is 91.6%. The same measure, in the same setting: to `O=c1c(NCCCN(Cc2ccc(F)cc2)c2ccccn2)c(NCc2cccnc2)c1=O` [TCMDC-142311] belongs 48%.

Regarding `[O-][s+]1nc(NCCCN(Cc2cccs2)c2ccccn2)c(NCc2ccccc2)n1` (stereo not drawn) [TCMDC-142312], the inhibition at 5 µM in data set [4] was found to be 5.1%. Turning to `O=C(OCc1ccccn1)c1nc2ccccc2[nH]1` [TCMDC-142313], the inhibition at 5 µM in data set [4] turned out to be 43.6%.

`c1ccc(COc2ccnc(NCCCOc3cccc(CN4CCCCC4)c3)c2)cc1` [TCMDC-142314]: in data set [4], the inhibition at 5 µM stood at 40%.

On to `c1cc(CN2CCCCC2)cc(OCCCNc2ccnc3ccccc23)c1` [TCMDC-142315], for which the inhibition at 5 µM in data set [4] was determined as 42%. For the compound `Cc1cc(Br)cnc1CCCCNc1cc(=O)c2ccccc2[nH]1` [TCMDC-142316], the inhibition at 5 µM in data set [4] was -5.57%. Same read-out and setting: under `CCCCN(CCCC)C(=O)CC(O)c1cc2c(Cl)cc(Cl)cc2c2cc(C(F)(F)F)ccc12` (stereo not drawn) [TCMDC-142317] stands 14.8%; under `CCCCN(CCCC)CCC(O)C(=Cc1ccc(Cl)cc1Cl)c1ccc(C(F)(F)F)cc1N` (stereo not drawn) [TCMDC-142318], -17.1%; under `Cc1ccccc1Nc1nc(NCc2ccccc2)nc2ccccc12` [TCMDC-142319], 98.9%. In the case of `COc1cccc2c(Oc3ccccc3C)ccnc12` [TCMDC-142320], the inhibition at 5 µM in data set [4] is -32.5%. On the same count and under the same terms, to `COc1cccc2c(Nc3ccccc3C)nc(Nc3ccccc3C)nc12` [TCMDC-142321] belongs 28.2%; to `Cc1ccccc1Nc1nc(NCCc2ccccc2)nc2ccccc12` [TCMDC-142322], 101%; to `CCCC(=O)c1cnc2cc(O)ccc2c1Nc1ccccc1C` [TCMDC-142323], -12.6%. With `Cc1ccccc1Nc1nc(Nc2ccccc2)c2ccccc2n1` [TCMDC-142324], in data set [4], the inhibition at 5 µM was found to be 28.6%.

Consider `CNc1nc(Nc2ccccc2C)nc2ccccc12` [TCMDC-142325], for which, in data set [4], the inhibition at 5 µM was 50.8%. `CCCNc1nc(Nc2ccccc2C)nc2ccccc12` [TCMDC-142326]: the inhibition at 5 µM in data set [4] is 78.9%.

Regarding `Cc1ccccc1Nc1nc(NCCCO)c2ccccc2n1` [TCMDC-142327], the inhibition at 5 µM in data set [4] is 41.9%. The same measure, in the same setting: to `CCCCCNc1nc(Nc2ccccc2C)nc2ccccc12` [TCMDC-142328] belongs 26.7%; to `CCCC(=O)c1cnc2c(Oc3cc(Cl)ncn3)cccc2c1Nc1ccccc1C` [TCMDC-142329], -26%; to `COc1ccccc1CNc1nc(Nc2ccccc2C)nc2ccccc12` [TCMDC-142330], 93.6%. The same measure, in the same setting: to `Cc1cc(F)ccc1Nc1nc(N(C)c2ccccc2)c2cccc(O)c2n1` [TCMDC-142331] belongs -52.7%. Still for that read-out and setting: under `Cc1cc(F)ccc1Nc1nc(N(C)c2ccccc2)c2cc(OCCCN(C)C)ccc2n1` [TCMDC-142332] stands 57.7%; under `Cc1cc(F)ccc1Nc1nc(N(C)c2ccccc2)c2cc(OCCN(C)C)ccc2n1` [TCMDC-142333], 31.3%. Take `Cc1cc(F)ccc1Nc1nc(N(C)c2ccccc2)c2cccc(OCCO)c2n1` [TCMDC-142334]: the inhibition at 5 µM in data set [4] was found to be 32.7%. Same read-out and setting: under `NC(=NCc1ccccc1)Nc1nc(-c2ccc(OCCCn3ccnc3)cc2)cs1` [TCMDC-142335] stands 8.33%; under `CCCCOP(=O)(OCCCC)C(=Cc1ccc(O)c2ccccc12)P(=O)(OCCCC)OCCCC` [TCMDC-142336], -25.7%. Same read-out and setting: to `Cc1ccccc1Nc1cc(Nc2ccccc2C)c2ccccc2n1` [TCMDC-142337] belongs 98.8%; to `CCCC(=O)c1cnc2c(OCCCc3c[nH]cn3)cccc2c1Nc1c(C)cccc1C` [TCMDC-142338], 28.2%. On the same count and under the same terms, to `CN(C)CCCOc1ccc(-c2csc(NC(N)=NCc3ccccc3)n2)cc1` [TCMDC-142339] belongs 35.3%.

On to `N[C@@H](Cc1cc(I)c(Oc2ccc(O)c(C(=O)O)c2)c(I)c1)C(=O)O` [TCMDC-142341], for which the inhibition at 5 µM in data set [4] came to 5.53%. Same read-out and setting: to `CCCCCCc1cc(Oc2c(I)cc(C[C@H](N)C(=O)O)cc2I)ccc1O` [TCMDC-142342] belongs 5.11%.

The values above are taken from publication PMC4552634, “A New Set of Chemical Starting Points with Plasmodium falciparum Transmission-Blocking Potential for Antimalarial Drug Discovery” (PLoS ONE, 2015).
